The source made the active and inactive calls. No cut-off for these calls is given here.
Columns and labels:
[1] = Cytotoxicity against mouse RAW264.7 cells assessed as reduction in cell viability at 20 uM incubated for 24 hrs in presence of LPS by MTT assay; format: toxicity, cell-based
[2] = Cytotoxicity against mouse RAW264.7 cells assessed as reduction in cell viability at 20 uM incubated for 24 hrs in absence of LPS by MTT assay; format: toxicity, cell-based
RAW264.7 [3] = assay: Anti-inflammatory activity against LPS-stimulated mouse RAW264.7 cells assessed as downregulation of LPS-induced iNOS expression at 0.5 to 2 uM preincubated with compound for 1 hr followed by LPS stimulation and measured after 24 hrs by Western blot analysis; format: functional, cell-based; conditions: dose 0.5-2 µM, time 25.0 hrs
RAW264.7 [4] = assay: Anti-inflammatory activity against LPS-stimulated mouse RAW264.7 cells assessed as reduction in LPS-induced iNOS level preincubated with compound for 1 hr followed by LPS stimulation and measured after 24 hrs by Western blot analysis; format: functional, cell-based; conditions: dose 0.5-2 µM, time 25.0 hrs
RAW264.7 [5] = assay: Anti-inflammatory activity in LPS-stimulated mouse RAW264.7 cells assessed as inhibition of IkappaB phosphorylation at 0.5 to 2 uM preincubated with compound for 1 hr followed by LPS stimulation and measured after 30 mins by Western blot analysis; format: functional, cell-based; conditions: dose 0.5-2 µM, time 1.5 hrs
RAW264.7 [6] = assay: Anti-inflammatory activity in LPS-stimulated mouse RAW264.7 cells assessed as inhibition of ERK phosphorylation preincubated with compound for 1 hr followed by LPS stimulation and measured after 30 mins by Western blot analysis; format: functional, cell-based; conditions: dose 0.5-2 µM, time 1.5 hrs
Mus musculus = assay: Anti-inflammatory activity against DSS-induced acute colitis C57BL/6J mouse model assessed as reduction in IL-6 level in colon at 10 to 20 mg/kg, po measured for 7 days by ELISA analysis; format: functional, organism-based; conditions: dose 10-20 mg/kg, time 7.0 day
[7] = Acute toxicity in female C57BL/6 mouse assessed as effect on body weight gain at 1000 to 2000 mg/kg, po measured for 14 days; format: organism-based; conditions: in vivo, 336 h, dose 1000-2000 mg/kg, time 14 day
[8] = Acute toxicity in male C57BL/6 mouse assessed as anorexia at 1000 to 2000 mg/kg, po measured for 14 days; format: organism-based; conditions: in vivo, 336 h, dose 1000-2000 mg/kg, time 14 day

In the case of C=CCOc1ccc(/C=C/c2cc(OC)cc(OC)c2-c2cnnn2C(=O)NCCCl)cc1, the IC50 at 24 h [1] is reported as over 50 µM, the IC50 at 24 h [2] is reported as over 50 µM and the Activity (RAW264.7 [3]) is reported as “Active”. The Activity (RAW264.7 [4]) was “Dose-Dependent Effect”, the Activity (RAW264.7 [5]) was “Active” and the Activity (RAW264.7 [6]) was “Dose-Dependent Effect”. For the same compound, the Activity (Mus musculus) was “Active”, the Activity [7] was “Non-Toxic” and the Activity [8] was “Non-Toxic”.
